Measured values from patent US10208034B2, “Quinoline derivative” (ONO PHARMACEUTICAL CO., LTD., priority 2014, dated 2019).

The compounds below were run against T1, Axl enzyme (Homo sapiens, UniProt P30530) (assay: Measurement of Axl inhibitory activity (LanthaScreen TR-FRET, in vitro test)). Details: Fluorescein-Poly GT substrate.
T1 sequence (P30530 26-894): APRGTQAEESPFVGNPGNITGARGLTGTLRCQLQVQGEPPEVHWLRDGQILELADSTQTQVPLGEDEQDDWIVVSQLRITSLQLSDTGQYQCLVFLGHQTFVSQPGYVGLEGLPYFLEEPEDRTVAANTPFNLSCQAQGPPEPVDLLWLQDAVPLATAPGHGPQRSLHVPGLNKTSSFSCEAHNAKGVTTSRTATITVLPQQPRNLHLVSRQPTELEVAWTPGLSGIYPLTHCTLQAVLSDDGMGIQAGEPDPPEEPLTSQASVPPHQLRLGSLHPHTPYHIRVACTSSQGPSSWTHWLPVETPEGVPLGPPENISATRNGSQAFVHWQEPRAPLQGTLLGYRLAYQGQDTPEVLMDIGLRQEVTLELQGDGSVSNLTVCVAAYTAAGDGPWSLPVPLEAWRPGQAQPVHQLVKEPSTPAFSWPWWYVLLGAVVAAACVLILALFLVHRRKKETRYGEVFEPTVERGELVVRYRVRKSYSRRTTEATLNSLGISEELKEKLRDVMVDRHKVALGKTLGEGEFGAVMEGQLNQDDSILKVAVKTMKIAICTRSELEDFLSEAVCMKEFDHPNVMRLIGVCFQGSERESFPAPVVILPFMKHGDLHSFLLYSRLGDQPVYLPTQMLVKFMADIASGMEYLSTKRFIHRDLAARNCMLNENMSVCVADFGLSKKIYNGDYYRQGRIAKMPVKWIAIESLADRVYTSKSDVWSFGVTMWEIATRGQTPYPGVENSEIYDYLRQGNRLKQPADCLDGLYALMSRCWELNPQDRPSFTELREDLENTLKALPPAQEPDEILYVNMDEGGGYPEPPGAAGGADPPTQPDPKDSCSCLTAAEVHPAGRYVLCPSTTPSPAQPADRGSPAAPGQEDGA
Format: biochemical
Description: Axl enzyme inhibitory activity was measured by using LanthaScreen (registered trademark) system (Invitrogen) based on the attached instruction. The reagents used are shown below.
Reaction buffer solution: a solution containing 50 mmol/L HEPES (pH7.5), 0.01% Brij35, 10 mmol/L MgCl2 and 1 mmol/L EGTA was prepared by using purified water.
Test substance solution: a solution containing a test compound of 5-fold concentration with respect to the final concentration was prepared by 20-fold diluting a DMSO solution of test compound of each concentration with the reaction buffer solution.
Enzyme solution: a solution containing 400 ng/mL Axl enzyme was prepared by using the reaction buffer solution.
Substrate solution: a solution containing 45 μmol/L ATP and 500 nmol/L Fluorescein-Poly GT (Invitrogen) was prepared by using the reaction buffer solution.
Detection solution: a solution containing 20 mM EDTA and 4 nM PY20 (Invitrogen) was prepared by using Dilution B (Invitrogen).
A 10 mmol/L DMSO solution of the test compound was dispensed into a 96-well plate (Nunc), and, furthermore, a 3-fold dilution series was prepared using DMSO. In each well of the 96-well plate for measurement, 5 μL each of the reaction buffer solution containing DMSO was added to a Blank group and a medium group, and 5 μL of the test substance solution was added to the test substance group, respectively. Next, 10 μL/well of the reaction buffer solution was added to the Blank group, and 10 μL/well each of the enzyme solution was added to the medium group and the test compound group, followed by stirring at room temperature for 10 min. After the completion of stirring, 10 μL each of the substrate solution was added into each well, followed by stirring at room temperature with light shielded for one hour. After the completion of reaction, 25 μL each of the detection solution was added to each well, and stood still at room temperature with light shielded for 30 min. After standing sill, fluorescence intensity at 520 nm and 495 nm at the time of irradiation with exciting light of 340 nm was measured by using Analyst GT (Molecular Devices). The phosphorylation of the artificial substrate was quantified by Time-resolved Fluorescence Resonance Energy Transfer (TR-FRET). TR-FRET ratio was calculated by dividing 520 nm fluorescence signal by 495 nm fluorescence signal for each well, and the inhibition rate (%) in the test compound group was calculated based on the following mathematical formula. Inhibition rate (%)=[1−(TR-FRET ratio of test compound group−A)/(B−A)×100 [Math. 1] A: average value of TR-FRET ratios of Blank group B: average value of TR-FRET ratios of medium group
Values of 50% inhibition rate (IC50 values) of the test compound were calculated from the inhibition curve based on the inhibition rate of the test compounds in each concentration.

SMILES | IC50
COc1cc2nccc(Oc3ccc(NC(=O)c4cc5c(n(-c6ccccc6)c4=O)CCCNC5=O)nc3)c2cc1OC [Example 66, N-{5-[(6,7-dimethoxy-4-quinolinyl)oxy]-2-pyridinyl}-2,5-dioxo-1-phenyl-2,5,6,7,8,9-hexahydro-1H-pyrido[3,2-c]azepine-3-carboxamide] | 1.5 nM
COc1cc2nccc(Oc3ccc(NC(=O)c4cc(C(C)=O)cn(-c5ccccc5)c4=O)nc3)c2cc1OC [Example 21, 5-acetyl-N-{5-[(6,7-dimethoxy-4-quinolinyl)oxy]-2-pyridinyl}-2-oxo-1-phenyl-1,2-dihydro-3-pyridinecarboxamide] | 1.5 nM
COc1cc2nccc(Oc3ccc(NC(=O)c4c5c(cn(-c6ccccc6)c4=O)C(=O)CCC5)nc3)c2cc1OC [Example 42, N-{5-[(6,7-dimethoxy-4-quinolinyl)oxy]-2-pyridinyl}-3,8-dioxo-2-phenyl-2,3,5,6,7,8-hexahydro-4-isoquinolinecarboxamide] | 3.5 nM
COc1cc2nccc(Oc3ccc(NC(=O)c4cc5ccncc5n(-c5ccccc5)c4=O)nc3)c2cc1OC [Example 28, N-{5-[(6,7-dimethoxy-4-quinolinyl)oxy]-2-pyridinyl}-2-oxo-1-phenyl-1,2-dihydro-1,7-naphthyridine-3-carboxamide] | 1.3 nM
